{"source": "patent US8795679B2", "about": "“Pharmaceutical and cosmetic use of extracts from algae obtainable from saline hot water sources” (Blaa Lonid Hf, priority 2006, dated 2014)", "system": "differentiation markers involucrin, transglutaminase-1, filaggrin, and loricrin in human epidermal keratinocytes", "test": "Induction of differentiation markers in human epidermal keratinocytes (real time RT-PCR)", "assay_type": "cell-based", "conditions": "especially at the early time point, 24 h post addition of the tested substance", "procedure": "The effect of the extracts obtained in Examples 1 and 2 on the differentiation markers involucrin, transglutaminase-1, filaggrin, and loricrin in human epidermal keratinocytes has been assessed. As control a ceramide mix (10 μM) was used to induce the differentiation markers.\nLong term cultured normal human epidermal keratinocytes, NHEK, prepared from neonatal foreskin are cultured in Keratinocyte SFM (Invitrogen, Heidelberg, Germany) supplemented with bovine pituitary extract (Invitrogen, Heidelberg, Germany) and recombinant epidermal growth factor (Invitrogen, Heidelberg, Germany). Cells are propagated up to passage 2 or 3 at 37° C. and 5% CO2. For induction of differentiation NHEKs are seeded in 6-well plates and grown up to confluence and treated with several concentrations of the algae extracts.\nTotal RNA was isolated using RNeasy Total RNA Kits (Qiagen, Hilden, Germany). The RNA concentration was determined via photometric measurement at 260/280 (Biophotometer, Eppendorf A G, Hamburg, Germany). An aliquot of 100 ng RNA was used for cDNA synthesis. […]\nPCR reactions were carried out on an Opticon 1 (MJ Research, Waltham, Mass., USA) using SYBR Green® PCR Master Mix (Applied Biosystems, Darmstadt, Germany). Each sample was analyzed in double employing the universal protocol over 36 cycles. […]"}
{"compound": "O=[Si]([O-])[O-].[Na+].[Na+]", "note": "[sodium metasilicate]", "values": [{"measurement": "expression of the differentiation markers involucrin, filaggrin and transglutaminase-1 (silica samples)", "result": "substantial up-regulation"}]}
